Here are results for two molecules from patent US20250102493A1, “COMPOSITIONS AND METHODS FOR TREATMENT OF ANEUPLOID CANCERS” (Yale University, priority 2023, published 2025).

Experiment [1] deals with NCI-60 cell line panel. As to conditions: NCI-60 panel (Luna et al.); cited from earlier work.
Experiment [2] relates to MCF10A cells. Description: 72-hour drug assay in MCF10A 1q-trisomic and 1q-disomic cells. It counts as cell-based, human. As to conditions: FIG. 6D. From the text: (§1) Following this, the cells were harvested and counted.
In experiment [3] the test system is MCF10A cells. Description: Cellular competition between 1q-trisomic and 1q-disomic MCF10A cells. It counts as cell-based, human. On the procedure:
For the competition experiment, two independent experiments were performed: one when cells were mixed at an 80-20 ratio and one when cells were mixed at a 90:10 ratio. Similar results were obtained in both experiments.
Whether the greater sensitivity of 1q-trisomic cells to UCK2 substrates could be used to re-direct cellular evolution away from aneuploidy and towards a disomic state with lower malignant potential was assessed (FIG. 6E). Fluorescently-labeled 1q-trisomic and 1q-disomic MCF10A cells were mixed at a ratio of 20:80 and then co-cultured the two cell populations. After nine days of growth in drug-free medium, the trisomic cells had expanded to include 75% of the culture, but when the same cell populations were grown in the presence of 500 nM 3-deazauridine, the trisomic population decreased to include only 4% of the final culture (FIG. 6F).

In experiment [4] the test system is A2780 cells. Description: 72-hour drug assay in A2780 1q-trisomic and 1q-disomic cells. Type of experiment: cell-based, human. As to conditions: for sensitivity of cells harboring a trisomy of chromosome 1q compared to isogenic cells containing two copies of chromosome 1q: A2780, FIG. 6D; for sensitivity of 1q disomic cells compared to 1q trisomic cells: A2780 WT (1q trisomic) and engineered 1q disomic clones C1-C4.
Text: as §1

For experiment [5], the system named is HAP1 UCK2-knockout cells. The experiment is described as follows: 72-hour drug assay in UCK2-knockout HAP1 cells. Type of experiment: cell-based. As to conditions: haploid HAP1 cell line, UCK2 deleted with CRISPR.
Text: as §1
HAP1 cells harboring a CRISPR-induced frameshift mutation in the UCK2 gene were purchased from Horizon Discovery (cat. no. HZGHC007067c006). Loss of UCK2 expression was verified by western blotting.
First, as the mechanism of many cancer drugs is poorly understood (Lin, et al., Sci. Transl. Med. 11 (2019), Lin & Sheltzer, Nat. Rev. Genet. 21, 671-682 (2020)),whether the cytotoxicity of RX-3117 and 3-deazauridine requires UCK2 expression was assessed.

For experiment [6], the system named is AGS cells. The experiment is described as follows: 72-hour drug assay in AGS 1q-trisomic and 1q-disomic cells. Type of experiment: cell-based, human.
Text: as §1

Experiment [7] concerns A2058 cells. Description: 72-hour drug assay in A2058 1q-trisomic and 1q-disomic cells. It counts as cell-based, human.
Text: as §1

The subject of experiment [8] is DLD1 colon cancer cells. Description: Drug sensitivity of DLD1 trisomy-1 cells and parental DLD1 cells. Type of experiment: cell-based. As to conditions: P<0.005; t-test. On the procedure:
The DLD1 trisomy 1 clone was generated as previously described in ref (Vasudevan, et al., Dev. Cell. 52, 413-428.e6 (2020)). In brief, DLD1 cells were transiently treated with 1 μM AZ3146 (Selleck Chemicals; cat. no. S2731) for 24 hours, and then the drug was washed out and the cells were allowed to recover for 24 hours. Following the recovery passage, single-cell sorting was performed to isolate individual aneuploid clones. SMASH-Seq was used to identify a clone harboring a trisomy of chromosome 1.
as §1

For `O=C1C=CN([C@@H]2O[C@H](CO)[C@@H](O)[C@H]2O)C(=O)C1` [3-deazauridine], in experiment [1], the “correlation of UCK2 expression with sensitivity to the compound” value is given as “higher UCK2 expression correlates with greater sensitivity”. Further, the “sensitivity of cells harboring a trisomy of chromosome 1q compared to isogenic cells containing two copies of chromosome 1q” value in experiment [2] is on record as “more sensitive”. Also, the “trisomic population in the final culture” value in experiment [3] (500 nM 3-deazauridine, nine days, 1q-trisomic and 1q-disomic MCF10A mixed at 20:80, 75% in drug-free medium) was found to be 4%. The “effect on outgrowth of the 1q-trisomic subpopulation” value in experiment [3] (trisomic and disomic MCF10A mixed at 20% to 80%, FIG. 6F) is on record as “prevents the outgrowth of the 1q-trisomic subpopulation”. In addition, in experiment [4], the “sensitivity of cells harboring a trisomy of chromosome 1q compared to isogenic cells containing two copies of chromosome 1q” value is on record as “more sensitive” and the “sensitivity of 1q disomic cells compared to 1q trisomic cells” value is reported as “less sensitive”. For the same molecule, in experiment [5], the “response of UCK2-knockout cells to the compound” value was “highly resistant”.

With `Nc1ccn([C@@H]2C(F)=C(CO)[C@@H](O)[C@H]2O)c(=O)n1` [RX-3117], in experiment [1], the “correlation of UCK2 expression with sensitivity to the compound” value is “higher UCK2 expression correlates with greater sensitivity”. In addition, the “difference in sensitivity between 1q-trisomic and 1q-disomic cells” value in experiment [6] and in experiment [7] was “not evident” each time. For the same molecule, the “sensitivity of cells harboring a trisomy of chromosome 1q compared to isogenic cells containing two copies of chromosome 1q” value in experiment [2] and in experiment [4] was “more sensitive” throughout. The “sensitivity of DLD1 trisomy-1 cells compared to the parental DLD1 cells” value in experiment [8] was “significantly more sensitive”. For the same molecule, the “effect of ectopic overexpression of UCK2 cDNA on sensitivity to the compound” value in experiment [4] (1q-disomic A2780 cells) is listed as “increase sensitivity”. Moreover, the “effect of deleting a single copy of UCK2 on sensitivity to the compound” value in experiment [4] (1q-trisomic A2780 cells) was “decrease sensitivity”. Besides, the “sensitivity of 1q disomic cells compared to 1q trisomic cells” value in experiment [4] is “less sensitive”. Besides, the “response of UCK2-knockout cells to the compound” value in experiment [5] is “highly resistant”.
